# Patent publication US11752111B2, “Use of cannabidivarin in the treatment of autism spectrum disorder, associated disorders and schizophrenia” (GW Research Limited, priority 2016, dated 2023)
# How the values were obtained:
# Assay type in all cases: in vivo, mouse
# MeCP2 KO mice [1] = assay: Symptom scoring in Rett syndrome model
# Protocol: (§1) CBDV was administered daily at the dose of 2, 20 and 200 mg/kg i.p. starting from PND 28 and the following signs were scored every other day: hindlimb clasping (indication of motor imbalance), tremor, gait (measure of coordination), breathing, mobility and general condition.
# (§2) Starting from PND 28, mice received a daily intraperitoneal injection of CBDV (or vehicle) at the dose of 2, 20 and 200 mg/kg. Animals were then scored every other day to evaluate the effect of CBDV treatment on motor symptoms (hindlimb clasping, gait, mobility) as well as neurological signs and general conditions (breathing abnormalities, tremors and general condition) present in MeCP2 knockout (KO) mice.
# Each of the six symptoms was scored from 0 to 2 (0 corresponds to the symptom being absent or the same as in the wild type (WT) animal; 1 when the symptom was present; 2 when the symptom was severe).
# Mobility: the mouse is observed when placed on bench, then when handled gently. 0=as WT. 1=reduced movement when compared with WT: extended freezing period when first placed on bench and longer periods spent immobile. 2=no spontaneous movement when placed on the bench; mouse can move in response to a gentle prod or a food pellet placed nearby.
# Gait: 0=as WT. 1=hind legs are spread wider than WT when walking or running with reduced pelvic elevation, resulting in a ‘waddling’ gait. 2=more severe abnormalities: tremor when feet are lifted, walks backward or ‘bunny hops’ by lifting both rear feet at once.
# Hindlimb clasping: mouse observed when suspend by holding base of the tail. 0=legs splayed outward. 1=hindlimbs are drawn toward each other (without touching) or one leg is drawn into the body. 2=both legs are pulled in tightly, either touching each other or touching the body.
# Tremor: mouse observed while standing on the flat palm of the hand. 0=no tremor. 1=intermittent mild tremor. 2=continuous tremor or intermittent violent tremor.
# Breathing: movement of flanks observed while animal is standing still. 0=normal breathing. 1=periods of regular breathing interspersed with short periods of more rapid breathing or with pauses in breathing. 2=very irregular breathing-gasping or panting.
# General condition: mouse observed for indicators of general well-being such as coat condition, eyes and body stance. 0=clean shiny coat, clear eyes, and normal stance. 1=eyes dull, coat dull/un-groomed, and somewhat hunched stance. 2=eyes crusted or narrowed, piloerection, and hunched posture.
# MeCP2 KO mice [2] = assay: Body weight gain in Rett syndrome model
# Protocol: as §1
# The CBDV was dissolved in ethanol, cremophor and saline (1:1:18).
# as §2
# MeCP2 KO mice [3] = assay: Novel Object Recognition test, short- and long-term memory, Rett syndrome model
# Protocol: Furthermore, the efficacy of CBDV in reverting/attenuating the short- and long-term memory deficits present in these mice was evaluated. The Novel Object Recognition (NOR) test was performed before the starting of the treatment Post Natal Day 28 (PND 28), at PND 41 when the first motor symptoms appear and at PND 56 and 66 when the disease is fully manifested.
# At PND 28, 41, 56 and 66 the effect of CBDV on short- and long-term memory deficits was investigated through the Novel Object Recognition (NOR) test.
# The experimental apparatus used for the Novel Object Recognition test was an open-field box (43×43×32 cm) made of Plexiglas, placed in a dimly illuminated room. Animals performed each test individually.
# Briefly, each animal was placed in the arena and allowed to explore two identical previously unseen objects for 10 minutes (familiarization phase). After an inter-trial interval of 30 minutes and 24 hours one of the two familiar objects was replaced by a novel, previously unseen object and mice were returned to the arena for the 10-minute test phase.
# During the test phase the time spent exploring the familiar object (Ef) and the new object (En) was recorded separately by two observers blind to the groups and the discrimination index was calculated as follows: [(En−Ef)/(En+Ef)]×100.
# MeCP2 KO mice [4] = assay: Survival in Rett syndrome model
# Protocol: as §1, §2
# Fmr1 KO mice = assay: Novel object recognition task in Fragile X model
# Protocol: Fmr1 KO mice and wild type mice were obtained and housed four per cage in a temperature of 21° C.±1° C. and humidity of 55%±10% controlled environment. Food and water were available ad libitum. All experiments were performed during the light phase of a 12 hour light/dark cycle (08:00 to 20:00). Animals were handled for one week before the start of experiments. All behavioural tests were performed by researchers blind to the different experimental groups.
# On day one mice were habituated for 10 minutes to the empty V-maze in which the task was to be performed. On the second day the mice went back to the maze for 10 minutes which contained two identical objects at the end of each corridor in the V-maze.
# The following day the mice were placed again in the same maze for a further 10 minutes but one of the familiar objects was replaced for a novel object. The total time spent exploring the novel and familiar object was recorded. A discrimination index was calculated as the difference between the time spent exploring the novel and familiar object divided by the total time exploring the two objects. A high discrimination index (0.3-0.5) is considered to reflect memory retention for the familiar object.
# Adult mice (10-15 weeks old) were treated either acutely with one dose of CBDV on […] or were treated once daily with CBDV for 7 consecutive days. Mice were evaluated in the novel object recognition task after the first and sixth day of CBDV administration. Doses of CBDV used were 2, 10, 20, 100 and 200 mg/kg.
smiles,measurement,setting,value
"C=C(C)[C@@H]1CCC(C)=C[C@H]1c1c(O)cc(CCC)cc1O [CBDV, Cannabidivarin]",total symptom score (FIG. 8),"MeCP2 KO mice [1]; 2 mg/kg, PND 45, 47, 49, 55, 56, 57, 58, 60 and 64, KO mice",significantly improved total symptom score at every time point
same,breathing score (FIG. 6B),"MeCP2 KO mice [1]; 2 mg/kg, PND 56 to 60, KO mice",significantly improve breathing
same,tremor score (FIG. 6A),"MeCP2 KO mice [1]; 2 mg/kg, PND 63, KO mice",still protective
same,general conditions (coat and eyes) (FIG. 7A),"MeCP2 KO mice [1]; 20 mg/kg, KO mice",significantly effective only at the earlier time point (PND 52)
same,breathing score (FIG. 6B),"MeCP2 KO mice [1]; 20 mg/kg, PND 57, KO mice",significant effect
same,hindlimb clasping score (FIG. 6C),"MeCP2 KO mice [1]; 200 mg/kg, KO mice",did not significantly affect
same,total symptom score (FIG. 8),"MeCP2 KO mice [1]; 200 mg/kg, KO mice",exerted beneficial effect at a later time point (PND 47) and its protective effect was evident until PND 58
same,gait score (FIG. 6D),"MeCP2 KO mice [1]; 200 mg/kg, PND 53 to 57, KO mice",significantly improved gait
same,tremor score (FIG. 6A),"MeCP2 KO mice [1]; 200 mg/kg, PND 55 and 63, KO mice",still able to reduce tremors
same,breathing score (FIG. 6B),"MeCP2 KO mice [1]; 200 mg/kg, PND 57 and 60, KO mice",effective
same,general conditions (coat and eyes) (FIG. 7A),"MeCP2 KO mice [1]; 2 and 200 mg/kg, PND 52-64, KO mice",significantly improved
same,mobility score (FIG. 7B),MeCP2 KO mice [1]; KO mice,reached statistical significance only at PND 64
same,total symptom score (FIG. 8),"MeCP2 KO mice [1]; all three doses, KO mice vs KO-vehicle",delay and attenuate the appearance of the phenotype
same,tremor score (FIG. 6A),"MeCP2 KO mice [1]; all three doses, PND 45-49, KO mice",significantly delaying and reducing tremors
same,hindlimb clasping score (FIG. 6C),"MeCP2 KO mice [1]; lower doses (2, 20 mg/kg), PND 47 and 49, KO mice",significantly attenuate hindlimb clasping
same,body weight gain (FIG. 4A),"MeCP2 KO mice [2]; 2, 20 and 200 mg/kg i.p. daily PND 28-66, MeCP2 KO mice",partially prevent the reduction in body weight
same,"body weight, area under the curve (FIG. 4B)",MeCP2 KO mice [2]; KO mice,significantly rescued body weight
same,"body weight, area under the curve (FIG. 4B)",MeCP2 KO mice [2]; WT controls,without affecting body weight
same,long-term memory in the NOR test (FIG. 10),"MeCP2 KO mice [3]; 2, 20 and 200 mg/kg, 24 hours inter-trial interval, KO mice",significantly counteract the cognitive impairment
same,short-term memory in the NOR test (FIG. 9),"MeCP2 KO mice [3]; 2, 20 and 200 mg/kg, each time point (PND 41, 56, 66), 30 min inter-trial interval, KO mice",significantly reverted the cognitive impairment
same,long-term recognition memory in the NOR test (FIG. 10),MeCP2 KO mice [3]; WT littermates,without affecting recognition memory
same,short-term recognition memory in the NOR test (FIG. 9),MeCP2 KO mice [3]; WT littermates,without affecting recognition memory
same,survival rate,"MeCP2 KO mice [4]; CBDV 200 mg/kg, PND 67, vehicle 25%",75%
same,survival measured at PND 67 (FIG. 5),"MeCP2 KO mice [4]; all three doses (2, 20, 200 mg/kg)",increase survival
same,discrimination index (FIG. 3A),Fmr1 KO mice,no effect
same,increase of discrimination index over vehicle treated mice (FIG. 3A),"Fmr1 KO mice; acute treatment, 2 mg/kg, knockout mice",not significant
same,discrimination index vs vehicle treated knockout mice (FIG. 3B),"Fmr1 KO mice; chronic treatment once daily for 7 days, 20 and 100 mg/kg, knockout mice",statistically significant increase
